Laboratory results from US10583128B2, “Treatment of diseases related to alpha subunits of sodium channels, voltage-gated (SCNxA) with small molecules” (CuRNA, Inc., priority 2011, dated 2020).
Where a name gives a salt, the structure may show the parent alone.

Tests used:
SCN1A mRNA [1] = assay: Upregulation of SCN1A mRNA in primary human skin fibroblasts carrying a Dravet-associated mutation (real time PCR); assay type: cell-based; conditions: compound 1 uM, 24-48 h, 18S-normalized vs vehicle (DMSO), average upregulation; for fold induction at 1 µM: Homo sapiens, Skin fibroblast, read-out: fold increase in SCN1A mRNA levels, SCN1A fibroblasts, Avg
Procedure: (§1) Transfer of a small molecule into a host cell or organism and determination of its effect upon RNA or protein up-regulation or down regulation can be assessed by several methods well known in the art. For example, SCN1A fibroblasts and/or keratinocytes or other cell types as desired are selected and grown for the specific assays herein. One day before the experiment cells are plated at the density of approximately 4×10^4/well into 24 well plates in Growth Media and incubated at 37° C. and 5% CO2 overnight. Next day, the media in the 24 well plates is changed to fresh Growth Media (1 ml/well) and the cells are dosed with small compounds. Compound stocks are prepared in DMSO at a concentration of 1 mM. At the time of the experiment 1 mM stock solutions are diluted to the concentration of 1 uM in Growth Media. One in 1000 dilution of DMSO is used for the control wells. After 24-48 h incubation at 37° C. and 5% CO2 the media is removed and RNA is extracted from the cells using SV Total RNA Isolation System from Promega (cat # Z3105) following the manufacturers' instructions. Six hundred nanograms of purified total RNA is added to the reverse transcription reaction performed using SuperScript VILO cDNA Synthesis Kit from Invitrogen (cat #11754-250) as described in the manufacturer's protocol. The cDNA from this reverse transcription reaction is used to monitor gene expression by real time PCR using ABI Taqman Gene Expression Mix (cat #4369510) and primers/probes designed by ABI (assays Hs00374696_ml, Hs00897350_ml or Hs00897341_ml for human SCN1A). The following PCR cycle is used: 50° C. for 2 min, 95° C. for 10 min, 40 cycles of (95° C. for 15 seconds, 60° C. for 1 min) using StepOne Plus Real Time PCR system (Applied Biosystems). The assay for 18S is manufactured by ABI (cat #4319413E). Fold change in gene expression after treatment with compounds is calculated based on the difference in 18S-normalized dCt values between compound- and vehicle-treated samples.
In Example 1 primary human skin fibroblasts carrying Dravet-associated SCN1A mutation were treated with small compounds at a final concentration of 1 uM.
Primary human skin fibroblasts carrying Dravet-associated SCN1A mutation introduced into culture by Dr. N. Kenyon (University of Miami) were grown in Growth Media consisting of a-MEM (Gibco, cat: 12561-056)+10% FBS (Mediatech, cat: 35-015 CV)+1% Antimycotic-Antibiotic (Gibco, cat: 15240-062) at 37° C. and 5% CO2. One day before the experiment cells were plated at the density of approximately 4×10^4/well into 24 well plates in Growth Media and incubated at 37° C. and 5% CO2 overnight. Next day, the media in the 24 well plates was changed to fresh Growth Media (I ml/well) and the cells were dosed with small compounds. All compounds were available from commercial sources. Compound stocks were prepared in DMSO at a concentration of 1 mM. At the time of the experiment 1 mM stock solutions were diluted to the concentration of 1 uM in Growth Media. One in 1000 dilution of DMSO was used for the control wells. After 24-48 h incubation at 37° C. and 5% CO2 the media was removed and RNA was extracted from the cells using SV Total RNA Isolation System from Promega (cat # Z3105) following the manufacturers' instructions. Six hundred nanograms of purified total RNA was added to the reverse transcription reaction performed using SuperScript VILO cDNA Synthesis Kit from Invitrogen (cat #11754-250) as described in the manufacturer's protocol. The cDNA from this reverse transcription reaction was used to monitor gene expression by real time PCR using ABI Taqman Gene Expression Mix (cat #4369510) and primers/probes designed by ABI (assays Hs00374696_ml, Hs00897350_ml or Hs00897341_ml for human SCN1A). Results obtained using all three assays were very similar (data not shown). […]

SCN1A mRNA [2] = assay: Upregulation of SCN1A mRNA in adult primary human keratinocytes (real time PCR); assay type: cell-based; conditions: compound 1 uM, 24-48 h, 18S-normalized vs vehicle (DMSO), average upregulation; for fold induction at 1 µM: Homo sapiens, Keratinocyte, read-out: fold increase in SCN1A mRNA levels, Keratinocytes, Avg
Procedure: as §1
In Example 2 primary human keratinocytes were treated with small compounds at a final concentration of 1 uM.
Adult primary human keratinocytes from PromoCell (Heidelberg, Germany, cat # C-12003) or LifeLine Cell Technology (Frederick, Md., cat # FC-0025) were grown in Growth Media supplied by the manufacturers at 37° C. and 5% CO2. One day before the experiment cells were plated at the density of approximately 4×10^4/well into 24 well plates in Growth Media and incubated at 37° C. and 5% CO2 overnight. Next day, the media in the 24 well plates was changed to fresh Growth Media (1 ml/well) and the cells were dosed with small compounds. All compounds were available from commercial sources.
Compound stocks were prepared in DMSO at a concentration of 1 mM. At the time of the experiment 1 mM stock solutions were diluted to the concentration of 1 uM in Growth Media. One in 1000 dilution of DMSO was used for the control wells. After 24-48 h incubation at 37° C. and 5% CO2 the media was removed and RNA was extracted from the cells using SV Total RNA Isolation System from Promega (cat # Z3105) following the manufacturers' instructions. Six hundred nanograms of purified total RNA was added to the reverse transcription reaction performed using SuperScript VILO cDNA Synthesis Kit from Invitrogen (cat #11754-250) as described in the manufacturer's protocol. The cDNA from this reverse transcription reaction was used to monitor gene expression by real time PCR using ABI Taqman Gene Expression Mix (cat #4369510) and primers/probes designed by ABI (assays Hs00374696_ml, Hs00897350_ml or Hs00897341_ml for human SCN1A). Results obtained using all three assays were very similar (data not shown). The following PCR cycle was used: 50° C. for 2 min, 95° C. for 10 min, 40 cycles of (95° C. for 15 seconds, 60° C. for 1 min) using StepOne Plus Real Time PCR system (Applied Biosystems). The assay for 18S was manufactured by ABI (cat #4319413E). […]

Compound	fold induction at 1 µM (SCN1A mRNA [1])	fold induction at 1 µM (SCN1A mRNA [2])	fold increase in SCN1A mRNA levels, SCN1A fibroblasts, Avg (SCN1A mRNA [1])	fold increase in SCN1A mRNA levels, Keratinocytes, Avg (SCN1A mRNA [2])
O=c1c2ccccc2[se]n1-c1ccccc1 [Ebselen, 2-Phenyl-1,2-benzoselenazol-3-one]	2.81	2.67	–	–
Cc1cccc(Nc2ccncc2S(=O)(=O)NC(=O)NC(C)C)c1 [Torsemide]	3.7	–	–	–
COc1ccc(CN2CCN(C(c3ccc(F)cc3)c3ccc(F)cc3)CC2)c(OC)c1OC [Lomerizine, 1-[bis(4-fluorophenyl)methyl]-4-[2,3,4-trimethoxyphenylmethyl]Dihydrochloride]	2.39	3.47	–	–
CN1C(=O)CN=C(c2ccccc2)c2cc([N+](=O)[O-])ccc21 [Nimetazepam, 2-methyl-9-nitro-6-phenyl-2,5-diazabicyclo[5.4.0]undeca-5,8,10,12-tetraen-3-one]	2.03	2.47	–	–
CN[C@H]1CC[C@@H](c2ccc(Cl)c(Cl)c2)c2ccccc21 [Sertraline, (1S,4S)-4-(3,4-dichlorophenyl)-N-methyl-1,2,3,4-tetrahydronaphthalen-1-amine]	1.79	5.18	–	–
COc1ccc(-c2oc3c(CC=C(C)C)c(O[C@@H]4O[C@H](CO)[C@@H](O)[C@H](O)[C@H]4O)cc(O)c3c(=O)c2O[C@@H]2O[C@@H](C)[C@H](O)[C@@H](O)[C@H]2O)cc1 [Icariin, 5-hydroxy-2-(4-methoxyphenyl)-8-(3-methylbut-2-enyl)-7-[(2S,3R,4S,5S,6R)-3,4,5-trihydroxy-6-(hydroxymethyl)oxan-2-yl]oxy-3-[(2S,3R,4R,5R,6S)-3,4,5-trihydroxy-6-methyloxan-2-yl]oxychromen-4-one]	2.38	2.29	–	–
CCOC(=O)C1=C(C)NC(C)=C(C(=O)OC)C1c1cccc([N+](=O)[O-])c1 (racemic) [Nitrendipine, (RS)-ethyl methyl 2,6-dimethyl-4-(3-nitrophenyl)-1,4-dihydropyridine-3,5-dicarboxylate]	2.13	–	–	–
CCOc1cc(N)c(Cl)cc1C(=O)NCC1CN(Cc2ccc(F)cc2)CCO1 (stereo not shown) [Mosapride]	1.9	1.47	–	–
CC(=O)N1CCN(c2ccc(OCC3COC(Cn4ccnc4)(c4ccc(Cl)cc4Cl)O3)cc2)CC1 [Ketoconazole, 1-[4-(4-{[(2R,4S)-2-(2,4-Dichlorophenyl)-2-(1H-imidazol-1-ylmethyl)-1,3-dioxolan-4-yl]methoxy}phenyl)piperazin-1-ylethan-1-one]	2.95	2.73	–	–
C[C@H]1CCC[C@H](O)CCCCCc2cc(O)cc(O)c2C(=O)O1 [Zeranol, (3S,7R)-7,14,16-trihydroxy-3-methyl-3,4,5,6,7,8,9,10,11,12-decahydro-1H-2-benzoxacyclotetradecin-1-one]	2.6	4.51	–	–
CC(C)c1ccc2oc3nc(N)c(C(=O)O)cc3c(=O)c2c1 [Amlexanox, 2-amino-7-isopropyl-5-oxo-5H-chromeno[2,3-b]pyridine-3-carboxylic acid]	2.01	5.41	–	–
C[C@]12Cc3c[nH]nc3C[C@@H]1CC[C@@H]1[C@@H]2CC[C@@]2(C)[C@H]1CC[C@]2(C)O [Stanozolol, 17β-Hydroxy-17-methyl-5α-androstano[3,2-c]-pyrazole]	1.75	1.76	–	–
COC(=O)C1=C(C)NC(C)=C(C(=O)OC2CCCN(Cc3ccccc3)C2)C1c1cccc([N+](=O)[O-])c1 [Benidipine, 5-Omethyl-3O-[(3R)-1-(phenylmethyl)-piperidin-3-yl]2,6-dimethyl-4-(3-nitrophenyl)-1,4-dihydropyridine-3,5-dicarboxylate]	3.01	1.69	–	–
COc1ccc2[nH]c([S+]([O-])Cc3ncc(C)c(OC)c3C)nc2c1 (stereo not shown) [Omeprazole, 6-methoxy-2-((4-methoxy-3,5-dimethylpyridin-2-yl)methylsulfinyl)-1H-benzo[d]imidazole Mg]	2.22	2.46	–	–
CN1CC(=O)N2[C@H](c3ccc4c(c3)OCO4)c3[nH]c4ccccc4c3C[C@@H]2C1=O [Tadalafil, (6R-trans)-6-(1,3-benzodioxol-S-yl)-2,3,6,7,12,12a-hexahydro-2-methyl-pyrazino[1′,2′:1,6]pyrido[3,4-b]indole-1,4-dione]	2.73	2.79	–	–
CCN(CC)C(=O)C1(c2ccccc2)CC1CN [Milnacipran, 1R(S),2S(R)[-2-(aminomethyl)-N,N-diethyl-1-phenylcyclopropanecarboxamide hydrochloride]	4.37	2.72	–	–
Cc1nc2n(c(=O)c1CCN1CCC(c3noc4cc(F)ccc34)CC1)CCCC2 [Risperidone, 3-[2-[4-(6-flouro-1,2-benzisoxazol-3-yl)-1-piperidinyl]-ethyl]-6,7,8,9-tetrahydro-2-methyl-4H-pyrido[,2-a]pyrimidin-4-one]	3.48	3.02	–	–
CC(N=C(NC#N)Nc1ccncc1)C(C)(C)C (stereo not shown) [Pinacidil, N-cyano-N′pyridin-4-yl-N″-(1,2,2-trimethylpropyl)guanidine]	3.48	–	–	–
CS(=O)(=O)Nc1ccc(Cc2noc(-c3ccc4[nH]cc(CCN)c4c3)n2)cc1 [L-694,247, Methanesulfonamide,N-[4-[[5-[3-(2-aminoethyl)-1H-indol-5-yl]-1,2,4-oxadiazol-3-yl]methyl]phenyl]]	–	–	2.20 fold	1.68 fold
CCc1nn(CCCN2CCN(c3cccc(Cl)c3)CC2)c(=O)n1CCOc1ccccc1 [Nefazadone, 2-[3-[4-(3-chlorophenyl)-1-piperazinyl]propyl]-5-ethyl-2,4-dihydro-4-(2-phenoxyethyl)-3H-1,2,4-triazol-3-one monohydrochloride]	2.39	4.53	–	–
